Marks after values point to notes of the source that are not given here.
Legend:
V79 cells = experiment: Nitroxide intracellular localization by EPR with trioxalato-chromiate; type: cell-based, Chinese hamster
Method: The EPR signal intensity of the total concentration of CHD (intra- and extra-cellular) in 6.4×10^7 V79 cells/ml traces (A and C) and in the presence of 110 mM trioxalato-chromiate (CrOx) (traces B and D).
For EPR experiments, samples (0.05-0.1 ml) either of solutions of chemicals or cell suspensions were drawn by a syringe into a gas-permeable teflon capillary of 0.8 mm inner diameter, 0.05 mm wall thickness (Zeus Industrial Products, Inc. Raritan, N.J.). Each capillary was folded twice, inserted into a narrow quartz tube which was open at both ends (2.5 mm ID), and then placed horizontally into the EPR cavity. During the experiments, gases of desired compositions were blown around the sample without having to disturb the alignment of the tube within the EPR cavity. EPR spectra were recorded in a Varian E4 (or E9) X-band spectrometer, with field set at 3357 G, modulation frequency of 100 KHz, modulation amplitude of 1 G and non-saturating microwave power. The EPR spectrometer was interfaced to an IBM-PC through an analog-to-digital converter and a data translation hardware (DT2801) and the spectra were digitized using commercial acquisition software, enabling subtraction of background signals. To study the kinetics of the spin-loss, the spectra were deliberately overmodulated, and the magnetic field was kept constant while the intensity of the EPR signal was followed. […]

[1] = SOD-inhibitable ferricytochrome c reduction assay, rate constants of reaction with O2 (SOD-like activity); type: biochemical; details: low ionic strength (10 mM HEPES), pH 7.0, 22° C.
Text: As a further check, the reaction of representatives of both 5- and 6-membered cyclic nitroxides with O2 was studied. The SOD-inhibitable ferricytochrome c reduction assay (Fridovich, Handbook of Methods for Oxygen Radical Research, 213-215, 1985) was used to determine rate constants of reaction with O2. […] The reaction was started by adding 0.01 U/ml XO and the rate of ferricytochrome c reduction, in the absence (V) and in the presence (v) of various nitroxides, was spectrophotometrically followed at 550 nm. Both reference and sample cuvettes contained all the reagents, with the reference cuvette containing 100 units/ml SOD, thereby eliminating spurious reactions from interfering with the determination of rate constants. Data were analyzed by plotting V/v as a function of [nitroxide] and k1 was calculated, knowing kCytC+superoxide, according to:
(V/v)−1=k1x[nitroxide]/kCytC+superoxidex[Cyt−c^III].

[2] = H2O2 accumulation and decay in tissue culture exposed to HX/XO (H2O2 selective electrode); type: cell-based, Chinese hamster; details: presence of CHD
Method: Chinese hamster V79 cells were plated in full medium and incubated at 37° C. with 5 mM HX+0.04 U/ml XO, sampled at various time points, and assayed for H2O2 using a hydrogen peroxide selective electrode.
Hydrogen peroxide was assayed using a YSI Model 27 Industrial Analyzer (Yellow Springs Instruments) equipped with a selective electrode for H2O2. For analysis of cellular preparations, the cells, except during the brief time required for removal of aliquots for analysis, were kept in T25 culture flasks maintained at 37° C. in complete medium (pH 7.2). Aliquots of 25 μl were sampled from the reaction or cell preparation system at varying time points and injected into the analyzer. [H2O2] was determined after calibrating the instrument with known concentrations of H2O2. The concentrations of standard H2O2 solutions were calibrated using iodometric assay (Hochanadel, J. Phys. Chem., 56, 587-594, 1952).

[3] = Water/octanol partition of nitroxides, ratio determined by EPR; type: physicochemical; details: Octanol:water
Text: CHD, 2-spirocyclohexane doxyl(2-spirocyclohexane-5,5-dimethyl-3-oxazolidinoxyl) and OXANO, 2-ethyl-2,5,5-trimethyl-3-oxazolidine-1-oxyl as well as other nitroxides were synthesized as described by Keana et al (J. Am. Chem. Soc., 89, 3055-3056, 1967) For the general synthesis of the cyclic amines, the appropriate starting ketone was reacted with 2-amino-2-methyl-1-propanol in benzene in the presence of catalytic amounts of p-toluene sulfonic acid. As the cyclic structure formed, water was eliminated. The volume of water collected in a Dean Stark apparatus was monitored and used to gauge the reaction progress. The amines thus produced were purified through fractional distillation under reduced pressure, characterized by 220 MHz ^1H NMR, IR, UV, either EI or CI mass spectroscopy, and subsequently oxidized to the corresponding nitroxides using m-chloroperbenzoic acid. The nitroxides were purified by silica flash chromatography (Still et al, J. Org. Chem., 43, 2923-2925, 1978). Water/octanol ratios were determined by placing a quantity of nitroxide in water+octanol within a separatory funnel. The mixture was shaken thoroughly and allowed to separate for 15 min, whereupon aliquots were taken from both fractions and the ratio of nitroxide distribution was determined using electron paramagnetic resonance (EPR) spectroscopy, by comparing the intensities of signal obtained under N2.

DNA-Fe(II) = experiment: Reaction of nitroxide with DNA-Fe(II), EPR spin-loss and OD353nm; type: biochemical, Salmon; details: hypoxic mixing, 0.1 mg/ml Salmon DNA, 50 mM MOPS pH 7.0, 22° C.
Method: All solutions always contained 0.1 mg/ml Salmon DNA. The appearance of DNA-Fe(III) was spectrophotometrically monitored at 353 nm, whereas the spin-loss of CHD was monitored by following its EPR signal. To study the time-dependence of ΔOD353nm (∘), 1 mM CHD was mixed with 0.1 mM Fe(II). To follow the spin-loss of CHD (□), 1 mM Fe(II) was mixed with 0.1 mM CHD.
It was also questioned whether the aerobic and hypoxic protection by CHD to H2O2 exposure was a result of CHD directly accepting electrons from ferrous ions, thereby preventing generation of .OH. Because cellular iron is chelated, the possible reaction of nitroxide with chelated iron(II) was examined by repeating the experiment in the presence of DNA. To study the possibility of nitroxide-induced oxidation of transition metals, CHD was hypoxically mixed with iron(II) in the presence of 0.1 mg/ml Salmon DNA. Consequently, DNA-Fe(III) was formed and the nitroxide EPR signal disappeared. The reaction kinetics were investigated by maintaining either CHD or Fe(II) in excess while the absorbance due to DNA-Fe(III) and the nitroxide spin-loss were monitored respectively (FIG. 6). Both the decay of the EPR signal and the appearance of the OD353nm obeyed pseudo 1st order kinetics from which the 2nd order reaction rate constant was calculated as 44 M^−1s^−1 or 33 M^−1s^−1 using the data from EPR or optical absorption, respectively.

[4] = EPR signal of nitroxides exposed to O2 flux formed by HX/XO (spin-loss); type: biochemical; details: % from total R′RNO + R′RNOH after exposure to 5 mM HX + 0.03 U/ml XO in air-saturated PBS pH 7.2
Method: For EPR experiments, samples (0.05-0.1 ml) either of solutions of chemicals or cell suspensions were drawn by a syringe into a gas-permeable teflon capillary of 0.8 mm inner diameter, 0.05 mm wall thickness (Zeus Industrial Products, Inc. Raritan, N.J.). Each capillary was folded twice, inserted into a narrow quartz tube which was open at both ends (2.5 mm ID), and then placed horizontally into the EPR cavity. During the experiments, gases of desired compositions were blown around the sample without having to disturb the alignment of the tube within the EPR cavity. EPR spectra were recorded in a Varian E4 (or E9) X-band spectrometer, with field set at 3357 G, modulation frequency of 100 KHz, modulation amplitude of 1 G and non-saturating microwave power. The EPR spectrometer was interfaced to an IBM-PC through an analog-to-digital converter and a data translation hardware (DT2801) and the spectra were digitized using commercial acquisition software, enabling subtraction of background signals. To study the kinetics of the spin-loss, the spectra were deliberately overmodulated, and the magnetic field was kept constant while the intensity of the EPR signal was followed.

CC1(C)CN([O])C2(CCCCC2)O1 [CHD, 2-spirocyclohexane-5,5-dimethyl-3-oxazolidinoxyl]
intracellular location / freedom of motion (V79 cells): located primarily in a membranous compartment
kR′RNO + O2 [1]: 3.5 × 10^3 M − 1^s − 1
pattern of H2O2 generation by HX/XO [2]: did not significantly alter
Partition coefficient [3]: 80
2nd order reaction rate constant with DNA-Fe(II), from EPR data (DNA-Fe(II); EPR spin-loss): 44 M⁻¹ s⁻¹
2nd order reaction rate constant with DNA-Fe(II), from optical absorption (DNA-Fe(II); OD353nm): 33 M⁻¹ s⁻¹
Steady state EPR signal (%) [4]: 30%

From patent publication US6605619B1, “Nitroxides as protectors against oxidatives stress” (The United States of America as represented by the …, priority 1992, dated 2003)
